The assay can be described thus: DPPH free radical scavenging rate method (antioxidant capacity). The following applies: 30 min, dark, 517 nm, average of three. It counts as biochemical. The procedure: The antioxidant capacity was determined with the neutral protease and trypsin-digested peptide prepared in example 2, as well as the alkaline protease-digested peptide, the trypsin-digested peptide, the neutral protease-digested peptide, the papain-digested peptide and the pepsin-digested peptide prepared in example 3 used as samples, with soybean protein peptide and reduced glutathione used as controls (DPPH free radical scavenging rate method).
(1) DPPH (1,1-diphenyl-2-picrylhydrazyl) (25 mg) was weighed accurately, dissolved in absolute ethanol and the volume reached to 250 mL in a brown volumetric flask, DPPH solution with the concentration of 0.1 mg/mL was obtained and was kept in dark place to be supplied as standby.
(2) 1.0 mL sample solutions with different concentrations (100 mg/mL, 10 mg/mL, 1 mg/mL, 0.1 mg/mL) were taken, the solutions were placed in a 10 mL colorimetric tube respectively, 4.0 ml DPPH solution was added, the mixture was reacted at room temperature in a dark place for 30 minutes.
(3) The absorbance value was measured at 517 nm with the absolute ethanol as blank. The DPPH free radical scavenging rate was calculated according to the following formula. DPPH free radical scavenging rate (%)=[…] • In the formula. A0—the absorbance value of 1.0 mL distilled water+3.0 mL solution • As—the absorbance value of 1.0 mL sample solution+3.0 mL DPPH solution • Ac—the absorbance value of 1.0 mL sample solution+3.0 mL absolute ethanol.
The experiment was repeated for three times, the average value of the scavenging rate was obtained (if the solution was turbid, the measurement was taken after centrifugation).

Structures are written as SMILES.

Take `N[C@@H](CCC(=O)N[C@@H](CS)C(=O)NCC(=O)O)C(=O)O` [Reduced glutathione (GSH), Reduced glutathione]: the “DPPH free radical scavenging rate” value was determined as 30.8% (sample concentration 0.1 mg/ml), 72.1% (sample concentration 1 mg/ml), 90.9% (sample concentration 10 mg/ml) and 95.9% (sample concentration 100 mg/ml).
